{
  "source": "ChEMBL document CHEMBL1124029",
  "about": "“Novel DNA groove binding alkylators: design, synthesis, and biological evaluation” (1988)",
  "data": [
    {"test_system": "Vaccinia virus", "test": "Minimum inhibitory concentration required to reduce virus induced cytopathogenicity by 50% against vaccinia virus in rabbit primary kidney cell cultures", "format": "functional", "settings": "Orthopoxvirus vaccinia", "units": {"MIC": "µg/mL"}, "values": [
      {"smiles": "CC[N+](CC)(CC)CC.Cn1cc(NC(=O)c2cc(NC(=O)C(Cl)Cl)cn2C)cc1C(=O)NCCC(=N)N.O=S(=O)([O-])O", "MIC": 20},
      {"smiles": "Cl.Cn1cc(NC(=O)c2cc(NC(=O)CCCCl)cn2C)cc1C(=O)NCCC(=N)N", "MIC": 20},
      {"smiles": "Cl.Cn1cc(NC(=O)c2cc(NC(=O)C(Cl)(Cl)Cl)cn2C)cc1C(=O)NCCC(=N)N", "MIC": "> 100"},
      {"smiles": "Cl.Cl.Cn1cc(NC(=O)c2cc(NC(=O)c3cc(NC=O)cn3C)cn2C)cc1C(=O)NCCC(=N)N", "MIC": 0.2},
      {"smiles": "Cl.Cl.Cn1cc(NC(=O)c2cc(NC(=O)CNC(=N)N)cn2C)cc1C(=O)NCCC(=N)N", "note": "[CONGOCIDINE]", "MIC": 2},
      {"smiles": "Cl.Cn1cc(NC(=O)c2cc(NC(=O)C3CC3)cn2C)cc1C(=O)NCCC(=N)N", "MIC": "> 100"},
      {"smiles": "Cl.Cn1cc(NC(=O)c2cc(NC(=O)CCl)cn2C)cc1C(=O)NCCC(=N)N", "MIC": 10},
      {"smiles": "Cl.Cn1cc(NC(=O)c2cc(NC(=O)CF)cn2C)cc1C(=O)NCCC(=N)N", "MIC": 7}
    ]}
  ]
}
